{"source": "paper PMC2191316", "about": "(The Journal of Experimental Medicine, 1994)", "note": "Residues, ends and D or L forms follow the SMILES beside them.", "data": [{"molecular_target": "DRB5*0101 molecules (Homo sapiens, UniProt P01903+Q30154)", "test": "Inhibition of radiolabeled TT", "type": "binding", "units": {"IC50": "nM"}, "values": [{"smiles": "CC[C@H](C)[C@H](NC(=O)[C@H](CC(N)=O)NC(=O)[C@H](CCCCN)NC(=O)[C@H](Cc1ccccc1)NC(=O)[C@H](Cc1ccccc1)NC(=O)[C@H](Cc1c[nH]cn1)NC(=O)[C@@H](NC(=O)[C@@H](NC(=O)[C@@H]1CCCN1C(=O)[C@H](CC(N)=O)NC(=O)[C@H](CCC(=O)O)NC(=O)[C@@H](N)CC(=O)O)C(C)C)C(C)C)C(=O)N[C@H](C(=O)N[C@H](C(=O)N1CCC[C@H]1C(=O)N[C@@H](CCCNC(=N)N)C(=O)N[C@H](C(=O)N1CCC[C@H]1C(=O)N1CCC[C@H]1C(=O)O)[C@@H](C)O)[C@@H](C)O)C(C)C", "note": "[(84-102)]", "IC50": 55}, {"smiles": "CC[C@H](C)[C@H](NC(=O)[C@H](CC(N)=O)NC(=O)[C@H](CCCCN)NC(=O)[C@H](Cc1ccccc1)NC(=O)[C@H](Cc1ccccc1)NC(=O)[C@H](Cc1c[nH]cn1)NC(=O)[C@@H](NC(=O)[C@@H](NC(=O)[C@@H]1CCCN1C(=O)[C@H](CC(N)=O)NC(=O)[C@H](C)N)C(C)C)C(C)C)C(=O)N[C@H](C(=O)N[C@H](C(=O)N1CCC[C@H]1C(=O)N[C@@H](CCCNC(=N)N)C(=O)O)[C@@H](C)O)C(C)C", "note": "[(85-99)85A] (H-ANPVVHFFKNIVTPR-OH)", "IC50": 420}, {"smiles": "CC[C@H](C)[C@H](NC(=O)[C@H](CC(N)=O)NC(=O)[C@H](CCCCN)NC(=O)[C@H](Cc1ccccc1)NC(=O)[C@H](Cc1ccccc1)NC(=O)[C@H](Cc1c[nH]cn1)NC(=O)[C@@H](NC(=O)[C@@H](NC(=O)[C@@H]1CCCN1C(=O)[C@H](C)NC(=O)[C@@H](N)CCC(=O)O)C(C)C)C(C)C)C(=O)N[C@H](C(=O)N[C@H](C(=O)N1CCC[C@H]1C(=O)N[C@@H](CCCNC(=N)N)C(=O)O)[C@@H](C)O)C(C)C", "note": "[(85-99)86A] (H-EAPVVHFFKNIVTPR-OH)", "IC50": 940}, {"smiles": "CC[C@H](C)[C@H](NC(=O)[C@H](CC(N)=O)NC(=O)[C@H](CCCCN)NC(=O)[C@H](Cc1ccccc1)NC(=O)[C@H](Cc1ccccc1)NC(=O)[C@H](Cc1c[nH]cn1)NC(=O)[C@@H](NC(=O)[C@@H](NC(=O)[C@H](C)NC(=O)[C@H](CC(N)=O)NC(=O)[C@@H](N)CCC(=O)O)C(C)C)C(C)C)C(=O)N[C@H](C(=O)N[C@H](C(=O)N1CCC[C@H]1C(=O)N[C@@H](CCCNC(=N)N)C(=O)O)[C@@H](C)O)C(C)C", "note": "[(85-99)87A] (H-ENAVVHFFKNIVTPR-OH)", "IC50": 610}, {"smiles": "CC[C@H](C)[C@H](NC(=O)[C@H](CC(N)=O)NC(=O)[C@H](CCCCN)NC(=O)[C@H](Cc1ccccc1)NC(=O)[C@H](Cc1ccccc1)NC(=O)[C@H](Cc1c[nH]cn1)NC(=O)[C@@H](NC(=O)[C@H](C)NC(=O)[C@@H]1CCCN1C(=O)[C@H](CC(N)=O)NC(=O)[C@@H](N)CCC(=O)O)C(C)C)C(=O)N[C@H](C(=O)N[C@H](C(=O)N1CCC[C@H]1C(=O)N[C@@H](CCCNC(=N)N)C(=O)O)[C@@H](C)O)C(C)C", "note": "[(85-99)88A] (H-ENPAVHFFKNIVTPR-OH)", "IC50": 945}, {"smiles": "CC[C@H](C)[C@H](NC(=O)[C@H](CC(N)=O)NC(=O)[C@H](CCCCN)NC(=O)[C@H](Cc1ccccc1)NC(=O)[C@H](Cc1ccccc1)NC(=O)[C@H](Cc1c[nH]cn1)NC(=O)[C@H](C)NC(=O)[C@@H](NC(=O)[C@@H]1CCCN1C(=O)[C@H](CC(N)=O)NC(=O)[C@@H](N)CCC(=O)O)C(C)C)C(=O)N[C@H](C(=O)N[C@H](C(=O)N1CCC[C@H]1C(=O)N[C@@H](CCCNC(=N)N)C(=O)O)[C@@H](C)O)C(C)C", "note": "[(85-99)89A] (H-ENPVAHFFKNIVTPR-OH)", "IC50": 690}, {"smiles": "CC[C@H](C)[C@H](NC(=O)[C@H](CC(N)=O)NC(=O)[C@H](CCCCN)NC(=O)[C@H](Cc1ccccc1)NC(=O)[C@H](Cc1ccccc1)NC(=O)[C@H](C)NC(=O)[C@@H](NC(=O)[C@@H](NC(=O)[C@@H]1CCCN1C(=O)[C@H](CC(N)=O)NC(=O)[C@@H](N)CCC(=O)O)C(C)C)C(C)C)C(=O)N[C@H](C(=O)N[C@H](C(=O)N1CCC[C@H]1C(=O)N[C@@H](CCCNC(=N)N)C(=O)O)[C@@H](C)O)C(C)C", "note": "[(85-99)90A] (H-ENPVVAFFKNIVTPR-OH)", "IC50": 640}, {"smiles": "CC[C@H](C)[C@H](NC(=O)[C@H](CC(N)=O)NC(=O)[C@H](CCCCN)NC(=O)[C@H](Cc1ccccc1)NC(=O)[C@H](C)NC(=O)[C@H](Cc1c[nH]cn1)NC(=O)[C@@H](NC(=O)[C@@H](NC(=O)[C@@H]1CCCN1C(=O)[C@H](CC(N)=O)NC(=O)[C@@H](N)CCC(=O)O)C(C)C)C(C)C)C(=O)N[C@H](C(=O)N[C@H](C(=O)N1CCC[C@H]1C(=O)N[C@@H](CCCNC(=N)N)C(=O)O)[C@@H](C)O)C(C)C", "note": "[(85-99)91A] (H-ENPVVHAFKNIVTPR-OH)", "IC50": 1300}, {"smiles": "CC[C@H](C)[C@H](NC(=O)[C@H](CC(N)=O)NC(=O)[C@H](CCCCN)NC(=O)[C@H](C)NC(=O)[C@H](Cc1ccccc1)NC(=O)[C@H](Cc1c[nH]cn1)NC(=O)[C@@H](NC(=O)[C@@H](NC(=O)[C@@H]1CCCN1C(=O)[C@H](CC(N)=O)NC(=O)[C@@H](N)CCC(=O)O)C(C)C)C(C)C)C(=O)N[C@H](C(=O)N[C@H](C(=O)N1CCC[C@H]1C(=O)N[C@@H](CCCNC(=N)N)C(=O)O)[C@@H](C)O)C(C)C", "note": "[(85-99)92A] (H-ENPVVHFAKNIVTPR-OH)", "IC50": 8200}, {"smiles": "CC[C@H](C)[C@H](NC(=O)[C@H](CC(N)=O)NC(=O)[C@H](C)NC(=O)[C@H](Cc1ccccc1)NC(=O)[C@H](Cc1ccccc1)NC(=O)[C@H](Cc1c[nH]cn1)NC(=O)[C@@H](NC(=O)[C@@H](NC(=O)[C@@H]1CCCN1C(=O)[C@H](CC(N)=O)NC(=O)[C@@H](N)CCC(=O)O)C(C)C)C(C)C)C(=O)N[C@H](C(=O)N[C@H](C(=O)N1CCC[C@H]1C(=O)N[C@@H](CCCNC(=N)N)C(=O)O)[C@@H](C)O)C(C)C", "note": "[(85-99)93A] (H-ENPVVHFFANIVTPR-OH)", "IC50": 2900}, {"smiles": "CC[C@H](C)[C@H](NC(=O)[C@H](C)NC(=O)[C@H](CCCCN)NC(=O)[C@H](Cc1ccccc1)NC(=O)[C@H](Cc1ccccc1)NC(=O)[C@H](Cc1c[nH]cn1)NC(=O)[C@@H](NC(=O)[C@@H](NC(=O)[C@@H]1CCCN1C(=O)[C@H](CC(N)=O)NC(=O)[C@@H](N)CCC(=O)O)C(C)C)C(C)C)C(=O)N[C@H](C(=O)N[C@H](C(=O)N1CCC[C@H]1C(=O)N[C@@H](CCCNC(=N)N)C(=O)O)[C@@H](C)O)C(C)C", "note": "[(85-99)94A] (H-ENPVVHFFKAIVTPR-OH)", "IC50": 140}, {"smiles": "CC(C)[C@H](NC(=O)[C@H](C)NC(=O)[C@H](CC(N)=O)NC(=O)[C@H](CCCCN)NC(=O)[C@H](Cc1ccccc1)NC(=O)[C@H](Cc1ccccc1)NC(=O)[C@H](Cc1c[nH]cn1)NC(=O)[C@@H](NC(=O)[C@@H](NC(=O)[C@@H]1CCCN1C(=O)[C@H](CC(N)=O)NC(=O)[C@@H](N)CCC(=O)O)C(C)C)C(C)C)C(=O)N[C@H](C(=O)N1CCC[C@H]1C(=O)N[C@@H](CCCNC(=N)N)C(=O)O)[C@@H](C)O", "note": "[(85-99)95A] (H-ENPVVHFFKNAVTPR-OH)", "IC50": 1100}, {"smiles": "CC[C@H](C)[C@H](NC(=O)[C@H](CC(N)=O)NC(=O)[C@H](CCCCN)NC(=O)[C@H](Cc1ccccc1)NC(=O)[C@H](Cc1ccccc1)NC(=O)[C@H](Cc1c[nH]cn1)NC(=O)[C@@H](NC(=O)[C@@H](NC(=O)[C@@H]1CCCN1C(=O)[C@H](CC(N)=O)NC(=O)[C@@H](N)CCC(=O)O)C(C)C)C(C)C)C(=O)N[C@@H](C)C(=O)N[C@H](C(=O)N1CCC[C@H]1C(=O)N[C@@H](CCCNC(=N)N)C(=O)O)[C@@H](C)O", "note": "[(85-99)96A] (H-ENPVVHFFKNIATPR-OH)", "IC50": 730}, {"smiles": "CC[C@H](C)[C@H](NC(=O)[C@H](CC(N)=O)NC(=O)[C@H](CCCCN)NC(=O)[C@H](Cc1ccccc1)NC(=O)[C@H](Cc1ccccc1)NC(=O)[C@H](Cc1c[nH]cn1)NC(=O)[C@@H](NC(=O)[C@@H](NC(=O)[C@@H]1CCCN1C(=O)[C@H](CC(N)=O)NC(=O)[C@@H](N)CCC(=O)O)C(C)C)C(C)C)C(=O)N[C@H](C(=O)N[C@H](C(=O)N[C@@H](C)C(=O)N[C@@H](CCCNC(=N)N)C(=O)O)[C@@H](C)O)C(C)C", "note": "[(85-99)98A] (H-ENPVVHFFKNIVTAR-OH)", "IC50": 350}, {"smiles": "CC[C@H](C)[C@H](NC(=O)[C@H](CC(N)=O)NC(=O)[C@H](CCCCN)NC(=O)[C@H](Cc1ccccc1)NC(=O)[C@H](Cc1ccccc1)NC(=O)[C@H](Cc1c[nH]cn1)NC(=O)[C@@H](NC(=O)[C@@H](NC(=O)[C@@H]1CCCN1C(=O)[C@H](CC(N)=O)NC(=O)[C@@H](N)CCC(=O)O)C(C)C)C(C)C)C(=O)N[C@H](C(=O)N[C@H](C(=O)N1CCC[C@H]1C(=O)N[C@@H](C)C(=O)O)[C@@H](C)O)C(C)C", "note": "[(85-99)99A] (H-ENPVVHFFKNIVTPA-OH)", "IC50": 2300}, {"smiles": "CC[C@H](C)[C@H](NC(=O)[C@H](CC(N)=O)NC(=O)[C@H](CCCCN)NC(=O)[C@H](Cc1ccccc1)NC(=O)[C@H](Cc1ccccc1)NC(=O)[C@H](Cc1c[nH]cn1)NC(=O)[C@@H](N)C(C)C)C(=O)N[C@H](C(=O)N[C@H](C(=O)N1CCC[C@H]1C(=O)N[C@@H](CCCNC(=N)N)C(=O)O)[C@@H](C)O)C(C)C", "note": "[(89-99)] (H-VHFFKNIVTPR-OH)", "IC50": 1200}]}]}
